Laboratory results reported in article PMC4014147 (Environmental Science & Technology, 2014).

What was measured:
mERβ2 = molecular target: T1, mERβ2 (Oryzias latipes, UniProt B1B6T4); assay: Competitive ligand binding assay; parameters: species or system medaka; conditions: for RBA (%) mERβ2: ratio of IC50 of E2β to IC50 of competitor
T1 sequence (B1B6T4 1-542): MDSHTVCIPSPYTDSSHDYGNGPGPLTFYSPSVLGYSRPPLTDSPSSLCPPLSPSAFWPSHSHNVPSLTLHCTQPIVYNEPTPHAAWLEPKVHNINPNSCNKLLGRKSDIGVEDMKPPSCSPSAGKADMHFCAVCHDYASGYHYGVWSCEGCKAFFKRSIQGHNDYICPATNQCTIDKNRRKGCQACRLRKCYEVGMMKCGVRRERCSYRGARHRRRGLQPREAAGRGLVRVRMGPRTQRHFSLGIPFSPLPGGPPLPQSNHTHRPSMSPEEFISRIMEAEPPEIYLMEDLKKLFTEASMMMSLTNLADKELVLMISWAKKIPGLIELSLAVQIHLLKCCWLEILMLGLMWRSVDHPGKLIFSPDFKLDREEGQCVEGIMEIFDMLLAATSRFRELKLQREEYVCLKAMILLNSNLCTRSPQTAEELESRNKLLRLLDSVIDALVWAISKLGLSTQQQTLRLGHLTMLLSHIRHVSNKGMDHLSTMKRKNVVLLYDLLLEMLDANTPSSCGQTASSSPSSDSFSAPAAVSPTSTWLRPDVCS

hERα and hERβ = assay: T47D-KBluc estrogen screening assay, luciferase reporter; conditions: YES-calibrated stock solutions
[1] = test system: hepatic gene expression in male Japanese medaka; assay: Medaka 7-day waterborne exposure, hepatic gene expression by qPCR; format: in vivo, Japanese medaka (Oryzias latipes)
mERβ1 = molecular target: T2, mERβ1 (Oryzias latipes, UniProt A0ACM8PZQ7); assay: Competitive ligand binding assay; parameters: species or system medaka; conditions: for RBA (%) mERβ1: ratio of IC50 of E2β to IC50 of competitor
T2 sequence (A0ACM8PZQ7 1-562): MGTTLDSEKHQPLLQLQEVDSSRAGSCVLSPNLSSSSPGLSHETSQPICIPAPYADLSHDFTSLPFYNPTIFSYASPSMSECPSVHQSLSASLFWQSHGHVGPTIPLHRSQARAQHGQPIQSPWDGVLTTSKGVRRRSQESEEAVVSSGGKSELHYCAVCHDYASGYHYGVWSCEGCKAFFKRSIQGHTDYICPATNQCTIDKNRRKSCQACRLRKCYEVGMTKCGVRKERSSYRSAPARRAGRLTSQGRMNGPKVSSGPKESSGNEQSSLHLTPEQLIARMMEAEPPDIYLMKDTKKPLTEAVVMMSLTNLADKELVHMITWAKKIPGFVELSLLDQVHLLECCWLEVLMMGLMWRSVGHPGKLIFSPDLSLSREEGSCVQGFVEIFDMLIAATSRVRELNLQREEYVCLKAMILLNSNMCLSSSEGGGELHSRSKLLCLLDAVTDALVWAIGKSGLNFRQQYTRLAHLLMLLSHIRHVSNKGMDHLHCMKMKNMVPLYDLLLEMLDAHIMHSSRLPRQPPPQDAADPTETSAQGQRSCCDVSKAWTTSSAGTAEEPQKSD

mERα, mERβ1, and mERβ2 = assay: Ligand binding assays, comparison of affinity across mER subtypes; parameters: species or system medaka; conditions: from IC50 of competitive binding
mERα = molecular target: T3, mERα (Oryzias latipes, UniProt P50241); assay: biochemical; format: binding, medaka
T3 sequence (P50241 1-620): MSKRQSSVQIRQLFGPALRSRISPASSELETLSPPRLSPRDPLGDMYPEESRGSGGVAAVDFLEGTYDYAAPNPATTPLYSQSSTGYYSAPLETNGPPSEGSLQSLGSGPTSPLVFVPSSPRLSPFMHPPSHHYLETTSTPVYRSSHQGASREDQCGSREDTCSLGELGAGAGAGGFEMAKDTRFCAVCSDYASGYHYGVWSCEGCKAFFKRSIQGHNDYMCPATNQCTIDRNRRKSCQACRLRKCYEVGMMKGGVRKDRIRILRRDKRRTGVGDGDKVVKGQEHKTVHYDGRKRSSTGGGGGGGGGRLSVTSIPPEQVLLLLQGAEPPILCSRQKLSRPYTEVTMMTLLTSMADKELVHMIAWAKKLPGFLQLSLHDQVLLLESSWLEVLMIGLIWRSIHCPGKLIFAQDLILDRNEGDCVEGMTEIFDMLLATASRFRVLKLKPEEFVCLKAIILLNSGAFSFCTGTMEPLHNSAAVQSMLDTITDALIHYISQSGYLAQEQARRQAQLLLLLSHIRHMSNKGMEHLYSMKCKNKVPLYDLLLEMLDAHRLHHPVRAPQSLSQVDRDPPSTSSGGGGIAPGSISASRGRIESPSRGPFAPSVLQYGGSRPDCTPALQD

[2] = male medaka liver, 7 days, YES-derived EEQ 0.64 nM, relative to negative control
[3] = liver of E2β-exposed male medaka, mERα expression as calibrator

IC50 (mERβ2) [nM]	RBA (%) mERβ2 (mERβ2) [%]	potency less in the T47D-KBluc versus the YES (hERα and hERβ) [fold]	IC50 (mERβ1) [nM]	RBA (%) mERβ1 (mERβ1) [%]	higher affinity for mERβ1 versus mERβ2 (mERα, mERβ1, and mERβ2) [fold]	Compound	mERα induction [1, 2] [fold]	more potent in the T47D-KBluc versus the YES (hERα and hERβ)	mERα expression above mERβ1 [1, 3] [fold]	mERα expression above mERβ2 [1, 3] [fold]	Chg-H gene induction [1, 2]	Chg-Hm gene induction [1, 2]	Chg-L gene induction [1, 2] [fold]	Vtg-1 gene induction [1, 2]	Vtg-2 gene induction [1, 2]	IC50 (mERα) [nM]	RBA (%) mERα (mERα; ratio of IC50 of E2β to IC50 of competitor) [%]
31.1	6.8	3.3	18.8	9.6	–	C[C@]12CC[C@@H]3c4ccc(O)cc4CC[C@H]3[C@@H]1CC[C@H]2O [E2α, 17α-estradiol]	24	–	–	–	–	–	–	–	–	–	–
34.2	6.1	–	18.1	10.0	1.9	C[C@]12CC[C@@H]3c4ccc(O)cc4CC[C@H]3[C@@H]1C[C@@H](O)[C@@H]2O [E3, estriol]	67	approximately 10 fold	–	–	–	–	–	–	–	–	–
2.1	100.0	–	1.8	100.0	–	C[C@]12CC[C@@H]3c4ccc(O)cc4CC[C@H]3[C@@H]1CC[C@@H]2O [E2β, 17β-estradiol]	72	–	23	5	12,730 fold	3,796 fold	324	27,004 fold	73,735 fold	–	–

Compound	IC50 (mERβ2) [nM]	RBA (%) mERβ2 (mERβ2) [%]	potency less in the T47D-KBluc versus the YES (hERα and hERβ) [fold]	IC50 (mERβ1) [nM]	RBA (%) mERβ1 (mERβ1) [%]	higher affinity for mERβ1 versus mERβ2 (mERα, mERβ1, and mERβ2) [fold]	mERα induction [1, 2] [fold]	more potent in the T47D-KBluc versus the YES (hERα and hERβ)	mERα expression above mERβ1 [1, 3] [fold]	mERα expression above mERβ2 [1, 3] [fold]	Chg-H gene induction [1, 2]	Chg-Hm gene induction [1, 2]	Chg-L gene induction [1, 2] [fold]	Vtg-1 gene induction [1, 2]	Vtg-2 gene induction [1, 2]	IC50 (mERα) [nM]	RBA (%) mERα (mERα; ratio of IC50 of E2β to IC50 of competitor) [%]
C[C@]12CC[C@@H]3c4ccc(O)cc4CC[C@H]3[C@@H]1CCC2=O [E1, estrone]	14.4	14.6	–	14.4	12.6	–	56	slightly more potent	–	–	–	–	–	–	–	8.4	36.7
